Experiments:
Bax = Bax protein level by immunoblot in MCF-7 cells; assay type: cell-based, human; details: triptolide-treated MCF-7 cells
Procedure: Immunoblotting. At 8 hours after triptolide and/or doxorubicin treatment cells were harvested at the times indicated and lysed using HNET buffer (50 mM HEPES pH 7.5, 100 mM NaCl, 1 mM EGTA, and 1% Triton X-100) supplemented with 1 mM DTT, 1 mM PMSF and protease inhibitors cocktail (Boehringer Mannheim, Germany). 35 μg of protein was loaded on 10% SDS-PAGE followed by transferring to PVDF membrane. Immunoblotting was performed as previously described using a p53 mouse monoclonal antibody from Oncogene Research Products (Lee et al. (1999) J Biol Chem 274:13451-5).
Immunoblot analysis using other antibodies was performed as described above. The band intensity was measured by NIH Image 1.62.

[1] = system: p53-binding site in the mdm2 promoter; test: mdm2 promoter-luciferase reporter (pBP100-GL2) in MCF-7 cells; assay type: cell-based, human
From the text: Reagents. PG490 (triptolide, MW 360) was obtained from Pharmagenesis (Palo Alto, Calif.). A549 (non-small cell lung cancer) and HT1080 (fibrosarcoma) cell lines were from ATCC. MCF-7 (breast cancer) cell line was obtained from Dr. Ron Weigel (Stanford University). Mouse embryonic fibroblasts (p53+/+ and p53−/−) cell lines were provided by Dr. Amato J. Giaccia (Stanford University). […] The mdm2 promoter-luciferase construct pBP100-GL2 was provided by Dr.
Louis Noumovski (Stanford University) and was made by cloning the Bgl II-Hind III fragment from the pBP100CAT vector into the pGL2-Basic Vector (Promega, Madison, Wis.). MCF-7 cells were transfected using lipofectamine Plus reagent from the Life Technologies, Inc. Cells were collected and lysates were prepared according to the manufacturer's protocol for luciferase assay (Promega Corp., Madison, Wis.). Antibodies for p53, p21^WAF1/CIP1, Mdm2, Protein phosphatase-1 (PP-1), and Erk-2 were from Calbiochem, Inc (La Jolla, Calif.) and the rabbit polyclonal Bax antibody was from Upstate Biotechnology (Lake Placid, N.Y.).
Cell culture and luciferase assay.
In the experiments shown in FIG. 5, RT-PCR was performed using 2 μg of total RNAs extracted from MCF-7 cells. […] GADPH was used as a loading control. […]

[2] = system: MCF-7 (breast cancer) cells; test: cells; details: for Percent survival: MTT after 48 h
Procedure: Cell culture and luciferase assay. A549 (non-small cell lung cancer), HT-1080 (fibrosarcoma), and MCF-7 (breast cancer) cells were cultured in the appropriate media with 10% FCS supplemented with L-glutamine, penicillin, and streptomycin. p53 wild-type (+/+) and null (−/−) Mouse Embryonic Fibroblasts (MEFs) transfected with the E1A/Ras were grown in DMEM containing 15% FCS supplemented with L-glutamine, penicillin, and streptomycin. Transfections were done on MCF-7 cells using the lipofectamine Plus reagent. At 24 hours after transfection, MCF-7 cells were left untreated or treated with triptolide (20 ng/ml) or doxorubicin (100 nM) for 4, 8, and 16 hours and cells were collected for luciferase assay. Luciferase activity was measured in samples with equal protein concentration with a Luminometer (Analytical Luminescence Laboratory, San Diego, Calif.).
Cell viability assay. Cell viability was measured by an 3-(4,5-dimethylthiazol-2-yl)-2,5-diphenyltetrazolium bromide (MTT) assay as described above. Untreated or cells treated with triptolide and/or doxorubicin were harvested at the indicated times followed by the addition of MTT to the cells in a 96-well plate. Cells were solubilized with […] acidified with 0.1N HCl. The 96-plate was read at a wavelength of 590 nm on an iEMS Labsystems plate reader.

Dx5 cells = test: Cell viability by annexin and propidium iodide staining/FACS with z-VAD.fmk, Dx5 cells; details: Homo sapiens, read-out: cell viability in PG490-treated Dx5 cells
Procedure: Cell death reagents and assays. Cell viability was measured by an MTT assay as recently described (Lee et al. (1999) J. Biol. Chem. 274:13451-13455. z-VAD-fluoromethylketone (z-VAD.fmk) was obtained from Alexis Biochemicals, San Diego, Calif. The effect of z-VAD.fmk on cell viability was analyzed by annexin and propidium iodide staining followed by FACS analysis according to the manufacturer's protocol (Clontech Laboratories, Palo Alto, Calif.). The analysis of apoptosis in histologic sections was done by terminal deoxynucleotidyl transferase (TdT)-mediated d-UTP nick end labeling (TUNEL) of slides from paraffin sections of day 3 tumors harvested from the mice 24 h after the second of two daily treatments with PG490-88 or saline. TUNEL staining was done according to the manufacturer's protocol (Boehringer Mannheim, Indianapolis, Ind.) and then the histology slides were counterstained with methyl green. DNA was isolated from cells for analysis of internucleosomal DNA laddering followed by agarose gel electrophoresis and ethidium bromide staining.

[3] = system: Dx5 MDR human tumor cells; test: Nude mouse xenograft, established Dx5 MDR tumors; assay type: in vivo, nude mice
Procedure: Nude mouse xenograft model. Female NCr nude mice were purchased from Taconic, Germantown, N.Y., and were generally 20-24 grams when used. Mice were kept in autoclaved filter-top microisolator cages with autoclaved water and sterile food ad lib. The cages were maintained in an isolator unit providing filtered air (Lab Products, Inc., Maywood, N.J.). Tumor cells were grown and harvested as described above. NCr nude mice were injected intradermally with 5×10^6 tumor cells. In some experiments, treatment was initiated on the day of tumor cell implantation. […] Mice were treated IP daily for 5 days per week.
MDR is a factor in failing to achieve durable chemotherapeutic efficacy in the clinical setting. Using an MDR tumor cell line Dx5 the efficacy of PG490-88 was tested. Nude mice were implanted intradermally with Dx5 tumor cells, and treatment was initiated when the tumors reached approximately 100 mm^3.
The data in FIG. 4 represents the measurement of Dx5 tumor volume on day 14 after the initiation of treatment. Nude mice bearing xenografts of Dx5 MDR human tumor cells were treated daily as shown. The data represent the means and the standard errors of the means of the tumor volumes as percent of the day 0 tumor volumes for each animal measured day 3, 7, 10 and 14 days after the initiation of treatment. There were 5 mice in the groups receiving saline or PG490-88 plus doxorubicin, and 4 mice in the groups receiving PG490-88 or doxorubicin alone.

CC(C)[C@]12O[C@H]1[C@@H]1O[C@]13[C@]1(O[C@H]1C[C@H]1C4=C(CC[C@@]13C)C(=O)OC4)[C@@H]2O [PG490, triptolide]
change in Bax (Bax): no significant change | decrease of transactivation of the reporter construct ([1]; MCF-7, triptolide 20 ng/ml): approximately 30% | cytotoxicity at 0.02 µg/mL ([2]; Homo sapiens, MCF7, read-out: decrease in cell viability, MCF-7, triptolide 20 ng/ml): 70% | Percent survival ([2]; MCF-7, Triptolide 5 ng/ml): 63.9 ± 8.1% | Percent survival ([2]; MCF-7, Triptolide 20 ng/ml): 30.5 ± 7.6% | viability at 0.02 µg/mL (Dx5 cells): 15%

CC(C)[C@]12O[C@H]1[C@@H]1O[C@]13[C@]1(O[C@H]1C[C@H]1C4=C(CC[C@@]13C)C(=O)OC4)[C@@H]2OC(=O)CCC(=O)[O-].[Na+] [PG490-88, 14-succinyl triptolide sodium salt]
growth of one tumor compared with its day 0 value ([3]; PG490-88 0.75 mg/kg/day, one of four mice): 2.8 fold | reduction of mean tumor size compared to day 0 values ([3]; PG490-88 0.75 mg/kg/day, three of the four mice): 28%

COc1cccc2c1C(=O)c1c(O)c3c(c(O)c1C2=O)C[C@@](O)(C(=O)CO)C[C@@H]3O[C@H]1C[C@H](N)[C@H](O)[C@H](C)O1 [doxorubicin, reference compound]
increase of mean tumor volume over 14 days ([3]; doxorubicin alone 2 mg/kg/day): more than 10 fold | increase of transactivation of the Mdm2 reporter ([1]; MCF-7, doxorubicin 100 nM, by 16 h): 15%

— patent publication US6599499B1, “Uses of diterpenoid triepoxides as an anti-proliferative agent” (priority 1999, dated 2003)
